According to patent US10639327B1, “Nano-calcium carbonate” (Washington University in St. Louis, priority 2015, dated 2020):

Legend:
[1] = system: 2F2B cells; experiment: Fluorescent micrographs of cells treated with DOX nanoparticles vs free DOX; assay type: cell-based; details: 30 min treatment, DOX fluorescence
Description: FIG. 4A depicts fluorescent micrographs showing 2F2B cells treated for 30 min with αvβ3-targeted perfluorocarbon nanoparticles incorporating DOX (Left) vs. equimolar exposure of free DOX (Middle).
Not only was significant amount delivered to the nucleus (white arrow), the cytoplasmic content of DOX remained high (yellow arrow), providing a continuous source of DOX for nuclear translocation. […] The data also confirm that DOX fluorescence, which was used to obtain these images, will provide sufficient contrast for imaging DOX's intracellular trafficking to the nuclei.

[2] = system: HT1080 tumors; details: I.V., 0.3-0.4 g/Kg (~10x the nanoparticle dosage)
Description: For determining pHe changes in vivo post bolus particle Intravenous injection, HT1080 tumors were grown subcutaneously in dorsal flanks of athymic nude mice, in dorsal bilateral flanks. Tumors generally grew in one flank. When the tumors growth reached approximately 50 mm^3 or greater, the extracellular pH was measured using an external pH electrode. […] Treatments were discontinued for at least 5 days before performing the in vivo pH measurements. […] The pH was measured using an extracellular pH electrode implanted into the tumor following a 15 min equilibration period after electrode entry. The pH electrode was calibrated within the week. About 1 mg of each size of particles (20 nm, 100 nm, 300 nm) in a 100 μL solution of PBS, CaCl2, MgCl2 and 2% bovine serum albumin was injected intravenously in individual mice. […] Tumor sizes at time of injection for this experiment were 12 mm×9 mm (20 nm particles), 13.7 mm×12.5 mm (100 nm), 13.5 mm×15.5 mm (300 nm), 12.5×16.5 mm (0.84% bicarbonate), 12.5×16.5 mm (7.5% bicarbonate), and 12.5×16.5 mm (vector). In general, the pH was then followed each minute for a minimum of 1 hour, or up to 3 hours if any changes were seen. […] Bleeding, if any, was also noted.

SMILES	cytoplasmic content of DOX [1]	tumor pH change [2]
COc1cccc2c1C(=O)c1c(O)c3c(c(O)c1C2=O)C[C@@](O)(C(=O)CO)C[C@@H]3O[C@H]1C[C@H](N)[C@H](O)[C@H](C)O1 [free DOX, Doxorubicin]	depleted rapidly	–
O=C([O-])O.[Na+] [sodium bicarbonate]	–	did not induce a measurable pH change
